PubChem BioAssay (NCI)
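The compound was tested at five concentrations on cells cultured in 96-well plates, with a 48-hour exposure period. TGI: concentration producing complete growth inhibition.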

Tests used:
Assay in all cases: NCI anticancer screen, dose series, 48 h
786-0 renal = system: 786-0 renal
A498 renal = system: A498 renal
A549 NSCLC = system: A549 NSCLC
ACHN renal = system: ACHN renal
BT-549 breast = system: BT-549 breast
CAKI-1 renal = system: CAKI-1 renal
CCRF-CEM leukemia = system: CCRF-CEM leukemia
COLO 205 colon = system: COLO 205 colon
DU-145 prostate = system: DU-145 prostate
EKVX NSCLC = system: EKVX NSCLC
HCC-2998 colon = system: HCC-2998 colon
HCT-116 colon = system: HCT-116 colon
HCT-15 colon = system: HCT-15 colon
HOP-62 NSCLC = system: HOP-62 NSCLC
HOP-92 NSCLC = system: HOP-92 NSCLC
HS 578T breast = system: HS 578T breast
HT29 colon = system: HT29 colon
K-562 leukemia = system: K-562 leukemia
KM12 colon = system: KM12 colon
LOX IMVI melanoma = system: LOX IMVI melanoma
M14 melanoma = system: M14 melanoma
MALME-3M melanoma = system: MALME-3M melanoma
MCF7 breast = system: MCF7 breast
MDA-MB-231 breast = system: MDA-MB-231 breast
MDA-MB-435 = system: MDA-MB-435
MDA-N = system: MDA-N
MOLT-4 leukemia = system: MOLT-4 leukemia
NCI-H226 lung = system: NCI-H226 lung
NCI-H23 lung = system: NCI-H23 lung
NCI-H460 lung = system: NCI-H460 lung
NCI-H522 lung = system: NCI-H522 lung
NCI/ADR-RES ovarian = system: NCI/ADR-RES ovarian
OVCAR-3 ovarian = system: OVCAR-3 ovarian
OVCAR-4 ovarian = system: OVCAR-4 ovarian
OVCAR-5 ovarian = system: OVCAR-5 ovarian
OVCAR-8 ovarian = system: OVCAR-8 ovarian
PC-3 prostate = system: PC-3 prostate
RPMI-8226 leukemia = system: RPMI-8226 leukemia
RXF 393 renal = system: RXF 393 renal
SF-268 CNS = system: SF-268 CNS
SF-295 CNS = system: SF-295 CNS
SF-539 CNS = system: SF-539 CNS
SK-MEL-2 melanoma = system: SK-MEL-2 melanoma
SK-MEL-28 melanoma = system: SK-MEL-28 melanoma
SK-MEL-5 melanoma = system: SK-MEL-5 melanoma
SK-OV-3 ovarian = system: SK-OV-3 ovarian
SN12C renal = system: SN12C renal
SNB-19 CNS = system: SNB-19 CNS
SNB-75 CNS = system: SNB-75 CNS
SR leukemia = system: SR leukemia
SW-620 colon = system: SW-620 colon
T-47D breast = system: T-47D breast
TK-10 renal = system: TK-10 renal
U251 CNS = system: U251 CNS
UACC-257 melanoma = system: UACC-257 melanoma
UACC-62 melanoma = system: UACC-62 melanoma
UO-31 renal = system: UO-31 renal
IGROV1 ovarian = system: IGROV1 ovarian
HL-60(TB) leukemia = system: HL-60(TB) leukemia

CN(C)/C=N/S(=O)(=O)c1nn2c(C=O)c(-c3ccccc3)nc2s1
TGI (786-0 renal): 21.3 µM
TGI (A498 renal): > 100 µM
TGI (A549 NSCLC): > 82.4 µM
TGI (ACHN renal): 21.1 µM
TGI (BT-549 breast): > 26.4 µM
TGI (CAKI-1 renal): 8.68 µM
TGI (CCRF-CEM leukemia): 9.8 µM
TGI (COLO 205 colon): > 38.6 µM
TGI (DU-145 prostate): > 100 µM
TGI (EKVX NSCLC): > 100 µM
TGI (HCC-2998 colon): > 56.5 µM
TGI (HCT-116 colon): 13.1 µM
TGI (HCT-15 colon): 45.6 µM
TGI (HOP-62 NSCLC): > 100 µM
TGI (HOP-92 NSCLC): > 100 µM
TGI (HS 578T breast): > 100 µM
TGI (HT29 colon): 4.58 µM
TGI (K-562 leukemia): > 61.7 µM
TGI (KM12 colon): > 79.7 µM
TGI (LOX IMVI melanoma): > 89 µM
TGI (M14 melanoma): 14.8 µM
TGI (MALME-3M melanoma): 35.6 µM
TGI (MCF7 breast): > 100 µM
TGI (MDA-MB-231 breast): > 74.9 µM
TGI (MDA-MB-435): > 100 µM
TGI (MDA-N): 52.5 µM
TGI (MOLT-4 leukemia): 32.1 µM
TGI (NCI-H226 lung): > 57.4 µM
TGI (NCI-H23 lung): > 83 µM
TGI (NCI-H460 lung): > 51.4 µM
TGI (NCI-H522 lung): 15.8 µM
TGI (NCI/ADR-RES ovarian): > 76.6 µM
TGI (OVCAR-3 ovarian): 24.1 µM
TGI (OVCAR-4 ovarian): > 89.9 µM
TGI (OVCAR-5 ovarian): > 100 µM
TGI (OVCAR-8 ovarian): > 53.4 µM
TGI (PC-3 prostate): > 89 µM
TGI (RPMI-8226 leukemia): 42.9 µM
TGI (RXF 393 renal): 49 µM
TGI (SF-268 CNS): > 100 µM
TGI (SF-295 CNS): > 100 µM
TGI (SF-539 CNS): > 100 µM
TGI (SK-MEL-2 melanoma): > 100 µM
TGI (SK-MEL-28 melanoma): 29.8 µM
TGI (SK-MEL-5 melanoma): 27.9 µM
TGI (SK-OV-3 ovarian): > 100 µM
TGI (SN12C renal): 49.7 µM
TGI (SNB-19 CNS): > 100 µM
TGI (SNB-75 CNS): > 100 µM
TGI (SR leukemia): 21.3 µM
TGI (SW-620 colon): 20.2 µM
TGI (T-47D breast): 61.4 µM
TGI (TK-10 renal): > 77.1 µM
TGI (U251 CNS): > 31.6 µM
TGI (UACC-257 melanoma): > 63.3 µM
TGI (UACC-62 melanoma): 54.4 µM
TGI (UO-31 renal): 19.5 µM

CC[C@@]1(O)C(=O)OCc2c1cc1n(c2=O)Cc2c-1nc1ccccc1c2/C=N/NC(=O)C[N+](C)(C)C
TGI (786-0 renal): > 55.7 µM
TGI (A498 renal): > 65.1 µM
TGI (A549 NSCLC): > 100 µM
TGI (BT-549 breast): > 100 µM
TGI (CAKI-1 renal): > 100 µM
TGI (COLO 205 colon): > 100 µM
TGI (DU-145 prostate): 22 µM
TGI (EKVX NSCLC): > 100 µM
TGI (HCC-2998 colon): > 100 µM
TGI (HCT-116 colon): > 100 µM
TGI (HCT-15 colon): > 100 µM
TGI (HOP-92 NSCLC): > 49.3 µM
TGI (HS 578T breast): > 100 µM
TGI (HT29 colon): > 100 µM
TGI (IGROV1 ovarian): > 100 µM
TGI (K-562 leukemia): > 100 µM
TGI (KM12 colon): > 100 µM
TGI (LOX IMVI melanoma): > 37.6 µM
TGI (M14 melanoma): 20.5 µM
TGI (MALME-3M melanoma): > 100 µM
TGI (MCF7 breast): > 100 µM
TGI (MDA-MB-231 breast): > 100 µM
TGI (MDA-MB-435): > 100 µM
TGI (MDA-N): > 100 µM
TGI (MOLT-4 leukemia): 16.3 µM
TGI (NCI-H226 lung): 31.8 µM
TGI (NCI-H23 lung): 6.27 µM
TGI (NCI-H460 lung): 21.5 µM
TGI (NCI-H522 lung): > 100 µM
TGI (NCI/ADR-RES ovarian): > 62.3 µM
TGI (OVCAR-3 ovarian): > 100 µM
TGI (OVCAR-4 ovarian): > 100 µM
TGI (OVCAR-5 ovarian): > 100 µM
TGI (OVCAR-8 ovarian): > 100 µM
TGI (PC-3 prostate): > 100 µM
TGI (RPMI-8226 leukemia): > 100 µM
TGI (RXF 393 renal): 11.7 µM
TGI (SF-268 CNS): > 63 µM
TGI (SF-295 CNS): > 33.3 µM
TGI (SF-539 CNS): 2.61 µM
TGI (SK-MEL-2 melanoma): > 100 µM
TGI (SK-MEL-28 melanoma): > 100 µM
TGI (SK-MEL-5 melanoma): 7.98 µM
TGI (SK-OV-3 ovarian): > 100 µM
TGI (SN12C renal): > 100 µM
TGI (SNB-19 CNS): > 94.2 µM
TGI (SNB-75 CNS): 9.74 µM
TGI (SR leukemia): 0.922 µM
TGI (SW-620 colon): > 100 µM
TGI (T-47D breast): 30.4 µM
TGI (TK-10 renal): > 100 µM
TGI (U251 CNS): > 35.8 µM
TGI (UACC-257 melanoma): > 100 µM
TGI (UACC-62 melanoma): 3.66 µM
TGI (UO-31 renal): 9.72 µM

COc1cccc(-c2nnc3c(-c4ccccc4)nc4ccccc4n23)c1
TGI (786-0 renal): > 100 µM
TGI (A498 renal): 93.4 µM
TGI (A549 NSCLC): > 100 µM
TGI (ACHN renal): > 100 µM
TGI (BT-549 breast): > 100 µM
TGI (CAKI-1 renal): > 86.6 µM
TGI (CCRF-CEM leukemia): 39.1 µM
TGI (COLO 205 colon): > 100 µM
TGI (DU-145 prostate): > 100 µM
TGI (EKVX NSCLC): > 100 µM
TGI (HCC-2998 colon): 62.7 µM
TGI (HCT-116 colon): > 100 µM
TGI (HCT-15 colon): > 100 µM
TGI (HL-60(TB) leukemia): 34 µM
TGI (HOP-62 NSCLC): > 100 µM
TGI (HOP-92 NSCLC): > 100 µM
TGI (HS 578T breast): > 100 µM
TGI (HT29 colon): > 100 µM
TGI (IGROV1 ovarian): > 100 µM
TGI (K-562 leukemia): > 56.5 µM
TGI (KM12 colon): > 43.7 µM
TGI (LOX IMVI melanoma): > 100 µM
TGI (M14 melanoma): > 100 µM
TGI (MALME-3M melanoma): > 83.7 µM
TGI (MCF7 breast): > 100 µM
TGI (MDA-MB-231 breast): > 100 µM
TGI (MDA-MB-435): 8.62 µM
TGI (MDA-N): 14.2 µM
TGI (MOLT-4 leukemia): > 63.8 µM
TGI (NCI-H226 lung): > 100 µM
TGI (NCI-H23 lung): > 100 µM
TGI (NCI-H460 lung): 98.7 µM
TGI (NCI-H522 lung): 22.7 µM
TGI (NCI/ADR-RES ovarian): > 100 µM
TGI (OVCAR-3 ovarian): > 100 µM
TGI (OVCAR-4 ovarian): > 100 µM
TGI (OVCAR-5 ovarian): > 100 µM
TGI (OVCAR-8 ovarian): > 100 µM
TGI (PC-3 prostate): > 100 µM
TGI (RPMI-8226 leukemia): 26.4 µM
TGI (RXF 393 renal): 94.7 µM
TGI (SF-268 CNS): > 100 µM
TGI (SF-295 CNS): > 100 µM
TGI (SF-539 CNS): > 100 µM
TGI (SK-MEL-2 melanoma): 44.3 µM
TGI (SK-MEL-28 melanoma): > 100 µM
TGI (SK-MEL-5 melanoma): 77.6 µM
TGI (SK-OV-3 ovarian): > 100 µM
TGI (SN12C renal): > 100 µM
TGI (SNB-19 CNS): > 100 µM
TGI (SR leukemia): > 54.8 µM
TGI (SW-620 colon): > 100 µM
TGI (T-47D breast): 17.3 µM
TGI (TK-10 renal): > 100 µM
TGI (U251 CNS): > 100 µM
TGI (UACC-257 melanoma): > 100 µM
TGI (UACC-62 melanoma): > 100 µM
TGI (UO-31 renal): > 100 µM
